Data from patent US8309718B2, “4-pyrazolyl-N-arylpyrimidin-2-amines and 4-pyrazolyl-N-heteroarylpyrimidin-2-amines as janus kinase inhibitors” (Incyte Corporation, priority 2007, dated 2012).

target: T1, human JAK2 (Homo sapiens, UniProt O60674); assay: In vitro JAK kinase assay (HTRF, phosphorylation of biotinylated peptide); assay type: biochemical; details: catalytic domain a.a. 828-1132, 30 μM ATP, 500 nM peptide, room temperature 1 hr; read-out: JAK-2 IC50
T1 construct: JAK2 (a.a. 828-1132); His tag (N); made in house; host or cells: insect cells (baculovirus)
T1 sequence (O60674 828-1132): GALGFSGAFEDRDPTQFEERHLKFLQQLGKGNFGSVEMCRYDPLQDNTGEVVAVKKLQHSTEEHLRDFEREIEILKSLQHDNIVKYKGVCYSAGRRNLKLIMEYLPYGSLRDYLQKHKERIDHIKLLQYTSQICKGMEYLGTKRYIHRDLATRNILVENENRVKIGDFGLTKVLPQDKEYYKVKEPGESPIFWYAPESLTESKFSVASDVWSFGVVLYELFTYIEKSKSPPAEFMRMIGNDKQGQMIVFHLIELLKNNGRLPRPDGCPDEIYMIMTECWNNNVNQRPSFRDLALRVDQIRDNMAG
In short: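 IC50 from HTRF detection (Eu-Py20 antibody, SA-APC) of biotinylated-peptide phosphorylation (500 nM), run 1 h at RT. Enzyme: N-His human JAK2 kinase domain a.a. 828-1132 from insect cells; ATP 30 μM; buffer 50 mM Tris pH 7.8 with NaCl, DTT, BSA.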

IC50 [nM]	SMILES
< 100	Cc1cnc(Nc2ccc(C(=O)N(C)C)cc2)nc1-c1cnn(C(CC#N)CC2CCN(C(=O)c3ccc(F)cc3F)CC2)c1 (racemic) [Example 68, 4-(4-(1-(1-cyano-3-(1-(2,4-difluorobenzoyl)piperidin-4-yl)propan-2-yl)-1H-pyrazol-4-yl)-5-methylpyrimidin-2-ylamino)-N,N-dimethylbenzamide]
< 100	CC(=O)Nc1ccc(Nc2ncc(C)c(-c3cnn(C(CC#N)CC4CCN(C(=O)c5ccc(F)cc5F)CC4)c3)n2)cc1 (racemic) [Example 69, N-(4-(4-(1-(1-cyano-3-(1-(2,4-difluorobenzoyl)piperidin-4-yl)propan-2-yl)-1H-pyrazol-4-yl)-5-methylpyrimidin-2-ylamino)phenyl)acetamide]
< 100	Cc1cnc(Nc2ccc(C(N)=O)cc2)nc1-c1cnn(C(CC#N)C2CCCC2)c1 (racemic) [Example 70, 4-(4-(1-(2-cyano-1-cyclopentylethyl)-1H-pyrazol-4-yl)-5-methylpyrimidin-2-ylamino)benzamide]
< 100	Cc1cnc(Nc2ccc(-n3cccn3)cc2)nc1-c1cnn(C(CC#N)C2CCCC2)c1 (racemic) [Example 71, 3-(4-(2-(4-(1H-pyrazol-1-yl)phenylamino)-5-methylpyrimidin-4-yl)-1H-pyrazol-1-yl)-3-cyclopentylpropanenitrile]
< 100	Cc1cnc(Nc2ccc(N3CCOCC3)cc2)nc1-c1cnn(C(CC#N)C2CCCC2)c1 (racemic) [Example 72, 3-cyclopentyl-3-(4-(5-methyl-2-(4-morpholinophenylamino)pyrimidin-4-yl)-1H-pyrazol-1-yl)propanenitrile]
< 100	Cc1cnc(Nc2ccccc2)nc1-c1cnn(C(CC#N)C2CCCC2)c1 (racemic) [Example 73, 3-cyclopentyl-3-(4-(5-methyl-2-(phenylamino)pyrimidin-4-yl)-1H-pyrazol-1-yl)propanenitrile]
< 100	Cc1cnc(Nc2ccc(-c3cnco3)cc2)nc1-c1cnn(C(CC#N)C2CCCC2)c1 (racemic) [Example 74, 3-cyclopentyl-3-(4-(5-methyl-2-(4-(oxazol-5-yl)phenylamino)pyrimidin-4-yl)-1H-pyrazol-1-yl)propanenitrile]
< 100	COc1ccc(Nc2ncc(C)c(-c3cnn(C(CC#N)C4CCCC4)c3)n2)cc1 (racemic) [Example 75, 3-cyclopentyl-3-(4-(2-(4-methoxyphenylamino)-5-methylpyrimidin-4-yl)-1H-pyrazol-1-yl)propanenitrile]
< 100	CC(=O)Nc1ccc(Nc2ncc(C)c(-c3cnn(C(CC#N)C4CCCC4)c3)n2)cc1 (racemic) [Example 76, N-(4-(4-(1-(2-cyano-1-cyclopentylethyl)-1H-pyrazol-4-yl)-5-methylpyrimidin-2-ylamino)phenyl)acetamide]
< 100	Cc1cnc(Nc2ccc(C(=O)N(C)C)cc2)nc1-c1cnn(C(CC#N)C2CCCC2)c1 (racemic) [Example 77, 4-(4-(1-(2-cyano-1-cyclopentylethyl)-1H-pyrazol-4-yl)-5-methylpyrimidin-2-ylamino)-N,N-dimethylbenzamide]
< 100	Cc1cnc(Nc2ccc(N3CCNCC3)cc2)nc1-c1cnn(C(CC#N)C2CCCC2)c1 (racemic) [Example 78, 3-cyclopentyl-3-(4-(5-methyl-2-(4-(piperazin-1-yl)phenylamino)pyrimidin-4-yl)-1H-pyrazol-1-yl)propanenitrile]
< 100	CCN(CC)c1ccc(Nc2ncc(C)c(-c3cnn(C(CC#N)C4CCCC4)c3)n2)cc1 (racemic) [Example 79, 3-cyclopentyl-3-(4-(2-(4-(diethylamino)phenylamino)-5-methylpyrimidin-4-yl)-1H-pyrazol-1-yl)propanenitrile]
< 100	CCN(CCCO)c1ccc(Nc2ncc(C)c(-c3cnn(C(CC#N)C4CCCC4)c3)n2)cc1 (racemic) [Example 80, 3-cyclopentyl-3-(4-(2-(4-(ethyl(3-hydroxypropyl)amino)phenylamino)-5-methylpyrimidin-4-yl)-1H-pyrazol-1-yl)propanenitrile]
< 100	Cc1cnc(Nc2ccc(C(=O)O)cc2)nc1-c1cnn(C(CC#N)C2CCCC2)c1 (racemic) [Example 81, 4-(4-(1-(2-cyano-1-cyclopentylethyl)-1H-pyrazol-4-yl)-5-methylpyrimidin-2-ylamino)benzoic acid]
< 100	Cc1cnc(Nc2ccc([N+](=O)[O-])cc2)nc1-c1cnn(C(CC#N)C2CCCC2)c1 (racemic) [Example 82, 3-cyclopentyl-3-(4-(5-methyl-2-(4-nitrophenylamino)pyrimidin-4-yl)-1H-pyrazol-1-yl)propanenitrile]
< 100	Cc1cnc(Nc2ccc(C(=O)NCCO)cc2)nc1-c1cnn(C(CC#N)C2CCCC2)c1 (racemic) [Example 83, 4-(4-(1-(2-cyano-1-cyclopentylethyl)-1H-pyrazol-4-yl)-5-methylpyrimidin-2-ylamino)-N-(2-hydroxyethyl)benzamide]

IC50 [nM]	SMILES
< 100	Cc1cnc(Nc2cccc(-c3cnco3)c2)nc1-c1cnn(C(CC#N)C2CCCC2)c1 (racemic) [Example 84, 3-cyclopentyl-3-(4-(5-methyl-2-(3-(oxazol-5-yl)phenylamino)pyrimidin-4-yl)-1H-pyrazol-1-yl)propanenitrile]
< 100	Cc1cnc(Nc2ccc(N)cc2)nc1-c1cnn(C(CC#N)C2CCCC2)c1 (racemic) [Example 85, 3-(4-(2-(4-aminophenylamino)-5-methylpyrimidin-4-yl)-1H-pyrazol-1-yl)-3-cyclopentylpropanenitrile]
< 100	CNC(=O)c1ccc(Nc2ncc(C)c(-c3cnn(C(CC#N)C4CCCC4)c3)n2)cc1 (racemic) [Example 86, 4-(4-(1-(2-cyano-1-cyclopentylethyl)-1H-pyrazol-4-yl)-5-methylpyrimidin-2-ylamino)-N-methylbenzamide]
< 100	Cc1cnc(Nc2ccc(C(=O)N3CCC(O)CC3)cc2)nc1-c1cnn(C(CC#N)C2CCCC2)c1 (racemic) [Example 88, 3-cyclopentyl-3-(4-(2-(4-(4-hydroxypiperidine-1-carbonyl)phenylamino)-5-methylpyrimidin-4-yl)-1H-pyrazol-1-yl)propanenitrile]
< 100	Cc1cnc(Nc2ccc(NS(C)(=O)=O)cc2)nc1-c1cnn(C(CC#N)C2CCCC2)c1 (racemic) [Example 89, N-(4-(4-(1-(2-cyano-1-cyclopentylethyl)-1H-pyrazol-4-yl)-5-methylpyrimidin-2-ylamino)phenyl)methanesulfonamide]
< 100	COC(=O)Nc1ccc(Nc2ncc(C)c(-c3cnn(C(CC#N)C4CCCC4)c3)n2)cc1 (racemic) [Example 90, Methyl 4-(4-(1-(2-cyano-1-cyclopentylethyl)-1H-pyrazol-4-yl)-5-methylpyrimidin-2-ylamino)phenylcarbamate]
< 100	Cc1cnc(Nc2ccc(NC(=O)CN3CCCC3)cc2)nc1-c1cnn(C(CC#N)C2CCCC2)c1 (racemic) [Example 91, N-(4-(4-(1-(2-cyano-1-cyclopentylethyl)-1H-pyrazol-4-yl)-5-methylpyrimidin-2-ylamino)phenyl)-2-(pyrrolidin-1-yl)acetamide]
> 100	N#CCC(CC1CCNCC1)n1cc(-c2ccnc(Nc3ccc(N4CCOCC4=O)cc3)n2)cn1 (racemic) [Example 92, 3-(4-(2-(4-(3-oxomorpholino)phenylamino)pyrimidin-4-yl)-1H-pyrazol-1-yl)-4-(piperidin-4-yl)butanenitrile]
< 100	CS(=O)(=O)N1CCC(CC(CC#N)n2cc(-c3ccnc(Nc4ccc(N5CCOCC5=O)cc4)n3)cn2)CC1 (racemic) [Example 95, 4-(1-(methylsulfonyl)piperidin-4-yl)-3-(4-(2-(4-(3-oxomorpholino)phenylamino)pyrimidin-4-yl)-1H-pyrazol-1-yl)butanenitrile]
< 100	CCS(=O)(=O)N1CCC(CC(CC#N)n2cc(-c3ccnc(Nc4ccc(N5CCOCC5=O)cc4)n3)cn2)CC1 (racemic) [Example 96, 4-(1-(ethylsulfonyl)piperidin-4-yl)-3-(4-(2-(4-(3-oxomorpholino)phenylamino)pyrimidin-4-yl)-1H-pyrazol-1-yl)butanenitrile]
< 100	N#CCC(CC1CCN(S(=O)(=O)C2CC2)CC1)n1cc(-c2ccnc(Nc3ccc(N4CCOCC4=O)cc3)n2)cn1 (racemic) [Example 97, 4-(1-(cyclopropylsulfonyl)piperidin-4-yl)-3-(4-(2-(4-(3-oxomorpholino)phenylamino)pyrimidin-4-yl)-1H-pyrazol-1-yl)butanenitrile]
< 100	N#CCC(C1CCCC1)n1cc(-c2ccnc(Nc3ccc(N4CCOCC4=O)cc3)n2)cn1 (racemic) [Example 98, 3-cyclopentyl-3-(4-(2-(4-(3-oxomorpholino)phenylamino)pyrimidin-4-yl)-1H-pyrazol-1-yl)propanenitrile]
< 100	Cc1nccc(-c2cccc(Nc3nccc(-c4cnn(C(CC#N)C5CCCC5)c4)n3)c2)n1 (racemic) [Example 99, 3-cyclopentyl-3-(4-(2-(3-(2-methylpyrimidin-4-yl)phenylamino)pyrimidin-4-yl)-1H-pyrazol-1-yl)propanenitrile]
< 100	COc1cnc(Nc2ccc(N3CCOCC3)cc2)nc1-c1cnn(C(CC#N)C2CCCC2)c1 (racemic) [Example 101, 3-cyclopentyl-3-(4-(5-methoxy-2-(4-morpholinophenylamino)pyrimidin-4-yl)-1H-pyrazol-1-yl)propanenitrile]
< 100	COc1cnc(Nc2ccc(-n3cccn3)cc2)nc1-c1cnn(C(CC#N)C2CCCC2)c1 (racemic) [Example 102, 3-(4-(2-(4-(1H-pyrazol-1-yl)phenylamino)-5-methoxypyrimidin-4-yl)-1H-pyrazol-1-yl)-3-cyclopentylpropanenitrile]
